Tested on: CCRF-CEM cancer cells - leukemia
Assay: Fluorometric Microculture Cytotoxicity Assay (FMCA), CCRF-CEM
Format: cell-based
Details: Homo sapiens, 72 h incubation
Excerpt: The Fluorometric Microculture Cytotoxicity Assay, FMCA (Larsson, R., et al.; Anticancer Res, 1989, 9, 1111-1119), is a three day non-clonogenic microplate-based cell viability assay used for measurement of the cytotoxic and/or cytostatic effect of compounds in vitro (Lindhagen, E. et al.; Nat. Protoc., 2008, 3, 1364-1369). FMCA represents a valuable method to measure cytotoxicity in a number of cell types, both cell lines and primary cells from patients (Larsson, R., et al.; Int. J. Cancer, 1992, 50, 177-185; Fridborg, H., et al.; Eur. J. Cancer, 1999. 35, 424-432; Dhar, S., et al.; Br. J. Cancer, 1996, 74, 888-896).
FMCA is based on the principle that fluorescein diacetate (FDA) is converted to the fluorescent probe fluorescein by esterases in the plasma membranes of living cells. For experiments, 96 or 384-well microplates are prepared with compounds and stored at −70° C. until use. Cells are then seeded into the drug-prepared plates and placed in an incubator for 72 h. On the last day of incubation, the plates are washed and a buffer containing FDA is added and incubated with the cells for 45 minutes. Finally the fluorescence per well is measured in a fluorometer and a Survival Index % (SI) for each compound-treated well is calculated with the equation: Compound-treated cells minus blank divided by control cells minus blank. A high SI-value indicates a large percentage of living cells and vice versa.
In subsequent experiments, compounds were tested, along with a number of approved cancer drugs (dasatinib, pazopanib, sorafenib, and sunitinib) as described above. Initially, the acute lymphoblastic leukemia cell line CCRF-CEM was used throughout. In the assay plates, medium was added to six empty wells (blank wells) and wells were filled with PBS and cell suspension and served as control wells. SI-values were then calculated for each compound-treated well as described above. All experiments were conducted twice and a new batch of plates was prepared for each experiment.
For dose-response experiments, 384-well plates were prepared as follows:
Compounds of the invention as well comparative kinase inhibitors sorafenib sunitinib, dasatinib, pazopanib and a reference compound disclosed in WO 2009/071535 (compound #107) were diluted with PBS to a concentration ten-times higher than the desired starting concentration. Then, a Biomek 2000 liquid handling system was employed to serially dilute the compounds in a deep-well 384-well plate. From this plate, assay plates containing 5 μl compound per well were prepared with the Biomek 2000. Certain compounds precipitated when diluted with PBS, and these compounds were therefore prepared in a 96-well plate manually as described above using culture medium RPMI 1640 instead of PBS.
The compounds were also tested at five concentrations, with five times serial dilution on the following cell types: CCRF-CEM, hTERT-RPE1 (normal retinal epithelial cells), hRPTEpiC (normal renal cells), and peripheral blood mononuclear cells (PBMC). Each experiment was performed three times, except for PBMC and hRPTEpiC, which were performed twice. SI-values were calculated, graphs were plotted using GraphPadPrism 5.0 (GraphPad Software Inc. La Jolla, Calif.) and IC50-values for each cell type and compound were determined from the curves.

CCOc1ccc2[nH]cc(CCNc3nc(C)cc(Nc4ccc5[nH]c(C)nc5c4)n3)c2c1 [Example 58, N^2-[2-(5-ethoxy-1H-indol-3-yl)ethyl]-6-methyl-N^4-(2-methyl-1H-benzo[d]imidazol-5-yl)pyrimidine-2,4-diamine]
EC50: 170 nM

From patent US9006241B2, “Pyrimidine derivatives” (Noviga Research AB, priority 2011, dated 2015)
